Values of other authors, collected in publication PMC4627231, “Targeting the sugar metabolism of tumors with a first-in-class 6-phosphofructo-2-kinase (PFKFB4) inhibitor” (Oncotarget, 2015).

System: breast cancer patients
Set-up: method as in PMID 25524798
Conditions: cited from earlier work

For CC(=O)c1c(C)c2cnc(Nc3ccc(N4CCNCC4)cn3)nc2n(C2CCCC2)c1=O [palbociclib], which progression-free survival is on record?
The progression-free survival was “double”.

What about the toxicity of the same molecule?
The toxicity was “without causing excessive toxicity”.
